Experimental data reported in patent US10131652B2, “Pyrimidinyloxy benzene derivatives as herbicides” (E. I. DU PONT DE NEMOURS AND COMPANY, priority 2014, dated 2018).

Legend:
Assay type in all cases: in vivo
[1] = test system: barnyardgrass (Echinochloa crus-galli); assay: Test C flooded paddy test plant response; conditions: Flood, 250 g ai/ha; scale of 0 to 100 where 0 is no effect and 100 is complete control; 13 to 15 days
Procedure, shortened: (§1)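 Readout is a visual 0–100 score (100 = complete control) versus controls at 13–15 days. Plants at 2-leaf stage, flooded to 3 cm, treated through paddy water.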

[2] = test system: rice (Oryza sativa); assay: Test C flooded paddy test plant response; conditions: Flood, 250 g ai/ha; scale of 0 to 100 where 0 is no effect and 100 is complete control; 13 to 15 days
Procedure, shortened: as §1

[3] = test system: ducksalad (Heteranthera limosa); assay: Test C flooded paddy test plant response; conditions: Flood, 250 g ai/ha; scale of 0 to 100 where 0 is no effect and 100 is complete control; 13 to 15 days
Procedure, shortened: as §1

[4] = test system: small-flower umbrella sedge (Cyperus difformis); assay: Test C flooded paddy test plant response; conditions: Flood, 250 g ai/ha; scale of 0 to 100 where 0 is no effect and 100 is complete control; 13 to 15 days
Procedure, shortened: as §1

[5] = test system: morningglory (Ipomoea spp.); assay: Test B pre-/postemergence plant response
Procedure, shortened: (§2)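 Visual injury scores on a 0–100 scale (100 = complete control) relative to untreated plants, taken about 10 days post-treatment in greenhouse. Treatments were a directed preemergence soil spray and a postemergence spray at one- to two-leaf stage, using surfactant-containing solvent formulation.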

[6] = test system: barnyardgrass (Echinochloa crus-galli); assay: Test B pre-/postemergence plant response
Procedure, shortened: as §2

[7] = test system: velvetleaf (Abutilon theophrasti); assay: Test B pre-/postemergence plant response
Procedure, shortened: as §2

[8] = test system: large (Lg) crabgrass (Digitaria sanguinalis); assay: Test B pre-/postemergence plant response
Procedure, shortened: as §2

[9] = test system: giant foxtail (Setaria faberii); assay: Test B pre-/postemergence plant response
Procedure, shortened: as §2

[10] = test system: pigweed (Amaranthus retroflexus); assay: Test B pre-/postemergence plant response
Procedure, shortened: as §2

[11] = test system: corn (Zea mays); assay: Test B pre-/postemergence plant response
Procedure, shortened: as §2

[12] = test system: wheat (Triticum aestivum); assay: Test B pre-/postemergence plant response
Procedure, shortened: as §2

[13] = 125 g ai/ha, postemergence, 0 to 100 scale, 0 no effect, 100 complete control
[14] = 500 g ai/ha, postemergence, 0 to 100 scale, 0 no effect, 100 complete control
[15] = Preemergence, 125 g ai/ha, 0 to 100 scale (0 no effect, 100 complete control)
[16] = Preemergence, 500 g ai/ha, 0 to 100 scale where 0 is no effect and 100 is complete control
[17] = Postemergence, 500 g ai/ha, 0 to 100 scale (0 no effect, 100 complete control)
[18] = Preemergence, 125 g ai/ha, 0 to 100 scale where 0 is no effect and 100 is complete control
[19] = Postemergence, 1000 g ai/ha, 0 to 100 scale (0 no effect, 100 complete control)
[20] = Preemergence, 500 g ai/ha, 0 to 100 scale (0 no effect, 100 complete control)
[21] = Preemergence, 1000 g ai/ha, 0 to 100 scale (0 no effect, 100 complete control)

SMILES: Fc1cnc(Oc2ccccc2-c2cc(C(F)(F)F)on2)nc1 [Compound 206]
- Barnyardgrass plant response rating [1]: 0
- Rice plant response rating [2]: 0
- Ducksalad plant response rating [3]: 70
- Sedge, Umbrella plant response rating [4]: 70
- Plant response rating, Morningglory [5, 13]: 20
- Plant response rating, Morningglory [5, 14]: 30
- Morningglory plant response rating [5, 15]: 0
- Plant response rating, Morningglory [5, 16]: 0
- Plant response rating, Barnyardgrass [6, 13]: 0
- Plant response rating, Barnyardgrass [6, 14]: 10
- Barnyardgrass plant response rating [6, 15]: 0
- Plant response rating, Barnyardgrass [6, 16]: 30
- Plant response rating, Velvetleaf [7, 13]: 30
- Plant response rating, Velvetleaf [7, 14]: 60
- Velvetleaf plant response rating [7, 15]: 30
- Plant response rating, Velvetleaf [7, 16]: 40
- Plant response rating, Crabgrass, Large [8, 13]: 10
- Plant response rating, Crabgrass, Large [8, 14]: 20
- Crabgrass, Large plant response rating [8, 15]: 10
- Plant response rating, Crabgrass, Large [8, 16]: 60
- Plant response rating, Foxtail, Giant [9, 13]: 0
- Plant response rating, Foxtail, Giant [9, 14]: 20
- Foxtail, Giant plant response rating [9, 15]: 10
- Plant response rating, Foxtail, Giant [9, 16]: 60
- Plant response rating, Pigweed [10, 13]: 40
- Plant response rating, Pigweed [10, 14]: 70
- Pigweed plant response rating [10, 15]: 50
- Plant response rating, Pigweed [10, 16]: 80
- Plant response rating, Corn [11, 13]: 0
- Plant response rating, Corn [11, 14]: 0
- Corn plant response rating [11, 15]: 0
- Plant response rating, Corn [11, 16]: 0
- Plant response rating, Wheat [12, 13]: 0
- Plant response rating, Wheat [12, 14]: 0
- Wheat plant response rating [12, 15]: 0
- Plant response rating, Wheat [12, 16]: 0

SMILES: Cc1noc(C)c1-c1c(C#N)cccc1Oc1ncc(Cl)cn1 [Compound 134]
- Barnyardgrass plant response rating [1]: 0
- Rice plant response rating [2]: 0
- Ducksalad plant response rating [3]: 40
- Sedge, Umbrella plant response rating [4]: 75
- Plant response rating, Morningglory [5, 13]: 10
- Plant response rating, Morningglory [5, 17]: 90
- Morningglory plant response rating [5, 15]: 10
- Plant response rating, Morningglory [5, 16]: 80
- Plant response rating, Barnyardgrass [6, 13]: 20
- Plant response rating, Barnyardgrass [6, 17]: 90
- Barnyardgrass plant response rating [6, 15]: 70
- Plant response rating, Barnyardgrass [6, 16]: 90
- Plant response rating, Velvetleaf [7, 13]: 40
- Plant response rating, Velvetleaf [7, 17]: 90
- Velvetleaf plant response rating [7, 15]: 40
- Plant response rating, Velvetleaf [7, 16]: 100
- Plant response rating, Crabgrass, Large [8, 13]: 10
- Plant response rating, Crabgrass, Large [8, 17]: 100
- Crabgrass, Large plant response rating [8, 15]: 100
- Plant response rating, Crabgrass, Large [8, 16]: 100
- Plant response rating, Foxtail, Giant [9, 13]: 10
- Plant response rating, Foxtail, Giant [9, 17]: 90
- Foxtail, Giant plant response rating [9, 15]: 90
- Plant response rating, Foxtail, Giant [9, 16]: 100
- Plant response rating, Pigweed [10, 13]: 60
- Plant response rating, Pigweed [10, 17]: 100
- Pigweed plant response rating [10, 15]: 100
- Plant response rating, Pigweed [10, 16]: 100
- Plant response rating, Corn [11, 13]: 10
- Plant response rating, Corn [11, 17]: 80
- Corn plant response rating [11, 15]: 20
- Plant response rating, Corn [11, 16]: 60
- Plant response rating, Wheat [12, 13]: 10
- Plant response rating, Wheat [12, 17]: 30
- Wheat plant response rating [12, 15]: 20
- Plant response rating, Wheat [12, 16]: 20

SMILES: FC(F)(F)c1cc(-c2ccccc2Oc2ncc(Br)cn2)on1 [Compound 64]
- Barnyardgrass plant response rating [1]: 35
- Rice plant response rating [2]: 0
- Ducksalad plant response rating [3]: 95
- Sedge, Umbrella plant response rating [4]: 80
- Plant response rating, Morningglory [5, 13]: 70
- Plant response rating, Morningglory [5, 17]: 100
- Plant response rating, Morningglory [5, 18]: 0
- Plant response rating, Morningglory [5, 16]: 60
- Plant response rating, Barnyardgrass [6, 13]: 90
- Plant response rating, Barnyardgrass [6, 17]: 100
- Plant response rating, Barnyardgrass [6, 18]: 60
- Plant response rating, Barnyardgrass [6, 16]: 100
- Plant response rating, Velvetleaf [7, 13]: 100
- Plant response rating, Velvetleaf [7, 17]: 100
- Plant response rating, Velvetleaf [7, 18]: 80
- Plant response rating, Velvetleaf [7, 16]: 90
- Plant response rating, Crabgrass, Large [8, 13]: 60
- Plant response rating, Crabgrass, Large [8, 17]: 90
- Plant response rating, Crabgrass, Large [8, 18]: 100
- Plant response rating, Crabgrass, Large [8, 16]: 100
- Plant response rating, Foxtail, Giant [9, 13]: 60
- Plant response rating, Foxtail, Giant [9, 17]: 80
- Plant response rating, Foxtail, Giant [9, 18]: 90
- Plant response rating, Foxtail, Giant [9, 16]: 100
- Plant response rating, Pigweed [10, 13]: 100
- Plant response rating, Pigweed [10, 17]: 100
- Plant response rating, Pigweed [10, 18]: 100
- Plant response rating, Pigweed [10, 16]: 100
- Plant response rating, Corn [11, 13]: 20
- Plant response rating, Corn [11, 17]: 30
- Plant response rating, Corn [11, 18]: 0
- Plant response rating, Corn [11, 16]: 20
- Plant response rating, Wheat [12, 13]: 0
- Plant response rating, Wheat [12, 17]: 10
- Plant response rating, Wheat [12, 18]: 0
- Plant response rating, Wheat [12, 16]: 30

SMILES: Cn1ccc(-c2ccccc2Oc2ncc(Cl)cn2)n1 [Compound 10]
- Barnyardgrass plant response rating [1]: 0
- Rice plant response rating [2]: 0
- Ducksalad plant response rating [3]: 0
- Sedge, Umbrella plant response rating [4]: 0
- Plant response rating, Morningglory [5, 13]: 20
- Plant response rating, Morningglory [5, 17]: 30
- Plant response rating, Morningglory [5, 19]: 10
- Plant response rating, Morningglory [5, 18]: 0
- Plant response rating, Morningglory [5, 20]: 0
- Plant response rating, Morningglory [5, 21]: 0
- Plant response rating, Barnyardgrass [6, 13]: 0
- Plant response rating, Barnyardgrass [6, 17]: 0
- Plant response rating, Barnyardgrass [6, 19]: 10
- Plant response rating, Barnyardgrass [6, 18]: 0
- Plant response rating, Barnyardgrass [6, 20]: 0
- Plant response rating, Barnyardgrass [6, 21]: 0
- Plant response rating, Velvetleaf [7, 13]: 0
- Plant response rating, Velvetleaf [7, 17]: 20
- Plant response rating, Velvetleaf [7, 19]: 20
- Plant response rating, Velvetleaf [7, 18]: 0
- Plant response rating, Velvetleaf [7, 20]: 0
- Plant response rating, Velvetleaf [7, 21]: 0
- Plant response rating, Crabgrass, Large [8, 13]: 0
- Plant response rating, Crabgrass, Large [8, 17]: 0
- Plant response rating, Crabgrass, Large [8, 19]: 10
- Plant response rating, Crabgrass, Large [8, 18]: 0
- Plant response rating, Crabgrass, Large [8, 20]: 0
- Plant response rating, Crabgrass, Large [8, 21]: 10
- Plant response rating, Foxtail, Giant [9, 13]: 0
- Plant response rating, Foxtail, Giant [9, 17]: 0
- Plant response rating, Foxtail, Giant [9, 19]: 10
- Plant response rating, Foxtail, Giant [9, 18]: 0
- Plant response rating, Foxtail, Giant [9, 20]: 0
- Plant response rating, Foxtail, Giant [9, 21]: 0
- Plant response rating, Pigweed [10, 13]: 0
- Plant response rating, Pigweed [10, 17]: 20
- Plant response rating, Pigweed [10, 19]: 50
- Plant response rating, Pigweed [10, 18]: 0
- Plant response rating, Pigweed [10, 20]: 30
- Plant response rating, Pigweed [10, 21]: 10
- Plant response rating, Corn [11, 13]: 0
- Plant response rating, Corn [11, 17]: 0
- Plant response rating, Corn [11, 19]: 0
- Plant response rating, Corn [11, 18]: 0
- Plant response rating, Corn [11, 20]: 0
- Plant response rating, Corn [11, 21]: 0
- Plant response rating, Wheat [12, 13]: 0
- Plant response rating, Wheat [12, 17]: 0
- Plant response rating, Wheat [12, 19]: 0
- Plant response rating, Wheat [12, 18]: 0
- Plant response rating, Wheat [12, 20]: 0
- Plant response rating, Wheat [12, 21]: 0

SMILES: N#Cc1cccc(Oc2ncc(F)cn2)c1-c1ccc(Cl)cn1 [Compound 207]
- Barnyardgrass plant response rating [1]: 0
- Rice plant response rating [2]: 0
- Ducksalad plant response rating [3]: 30
- Sedge, Umbrella plant response rating [4]: 30
- Plant response rating, Morningglory [5, 13]: 10
- Plant response rating, Morningglory [5, 14]: 30
- Morningglory plant response rating [5, 15]: 0
- Plant response rating, Morningglory [5, 16]: 30
- Plant response rating, Barnyardgrass [6, 13]: 0
- Plant response rating, Barnyardgrass [6, 14]: 70
- Barnyardgrass plant response rating [6, 15]: 10
- Plant response rating, Barnyardgrass [6, 16]: 90
- Plant response rating, Velvetleaf [7, 13]: 10
- Plant response rating, Velvetleaf [7, 14]: 60
- Velvetleaf plant response rating [7, 15]: 0
- Plant response rating, Velvetleaf [7, 16]: 30
- Plant response rating, Crabgrass, Large [8, 13]: 0
- Plant response rating, Crabgrass, Large [8, 14]: 30
- Crabgrass, Large plant response rating [8, 15]: 100
- Plant response rating, Crabgrass, Large [8, 16]: 100
- Plant response rating, Foxtail, Giant [9, 13]: 0
- Plant response rating, Foxtail, Giant [9, 14]: 30
- Foxtail, Giant plant response rating [9, 15]: 70
- Plant response rating, Foxtail, Giant [9, 16]: 100
- Plant response rating, Pigweed [10, 13]: 70
- Plant response rating, Pigweed [10, 14]: 100
- Pigweed plant response rating [10, 15]: 90
- Plant response rating, Pigweed [10, 16]: 100
- Plant response rating, Corn [11, 13]: 0
- Plant response rating, Corn [11, 14]: 0
- Corn plant response rating [11, 15]: 0
- Plant response rating, Corn [11, 16]: 0
- Plant response rating, Wheat [12, 13]: 0
- Plant response rating, Wheat [12, 14]: 0
- Wheat plant response rating [12, 15]: 0
- Plant response rating, Wheat [12, 16]: 0
